Source: US7829665B2 (priority 2005, dated 2010)
Like-named read-outs stand apart in the source and are kept apart here.

Experiments:
[1] = target: T1, full-length NS3/NS4A-2 (HCV NS3 protease) (Hepatitis C virus genotype 1a, UniProt P27958); assay: NS3-NS4 protease assay / NS3 inhibition assay (RETS1 substrate, fluorescence kinetic read); type: biochemical
T1 construct: Recombinant E. coli or Baculovirus full-length NS3 was diluted to 3.33 μM with assay buffer; made in house; host or cells: E. coli or baculovirus (BV) expression system
In short: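 Full-length NS3 from E. coli (2 nM in assay) or baculovirus (3 nM) was precomplexed with excess NS4A-2 peptide, then preincubated 10 min at room temperature with serially diluted compounds starting at 50 microM. Reaction was started with RETS1 substrate at 8 μM before addition and read kinetically for 30 min (ex 335/em 495 nm). Four-parameter IC50s were converted to Ki by Cheng-Prusoff using Km 2.03 μM (E. coli) or 1.74 μM (BV).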

[2] = system: HCV sub-genomic replicon in GS4.3 cells (HuH-7 hepatoma cells); assay: Quantitation by ELISA of Neomycin phosphotransferase II (NPTII) in the HCV sub-genomic replicon, GS4.3; type: cell-based, hepatitis C virus; settings: Hepatitis C virus, Huh-7
Protocol: The HCV sub-genomic replicon (1377/NS3-3′, accession No. AJ242652), stably maintained in HuH-7 hepatoma cells, was created by Lohmann et al. Science 285: 110-113 (1999). The replicon-containing cell culture, designated GS4.3, was obtained from Dr. Christoph Seeger of the Institute for Cancer Research, Fox Chase Cancer Center, Philadelphia, Pa.
GS4.3 cells were maintained at 37° C., 5% CO2, in DMEM (Gibco 11965-092) supplemented with L-glutamine 200 mM (100×) (Gibco25030-081), non-essential amino acids (NEAA) (Biowhittaker 13-114E), heat-inactivated (HI) Fetal Bovine Serum (FBS) (Hyclone SH3007.03) and 750 μg/ml geneticin (G418) (Gibco 10131-035). Cells were sub-divided 1:3 or 4 every 2-3 days.
24 h prior to the assay, GS4.3 cells were collected, counted, and plated in 96-well plates (Costar 3585) at 7500 cells/well in 100 μl standard maintenance medium (above) and incubated in the conditions above. To initiate the assay, culture medium was removed, cells were washed once with PBS (Gibco 10010-023) and 90 μl Assay Medium (DMEM, L-glutamine, NEAA, 10% HI FBS, no G418) was added. Inhibitors were made as a 10× stock in Assay Medium, (3-fold dilutions from 10 μM to 56 pM final concentration, final DMSO concentration 1%), 10 μl were added to duplicate wells, plates were rocked to mix, and incubated as above for 72 h.
An NPTII Elisa kit was obtained from AGDIA, Inc. (Compound direct ELISA test system for Neomycin Phosphotransferase II, PSP 73000/4800). Manufacturer's instructions were followed, with some modifications. 10×PEB-1 lysis buffer was made up to include 500 μM PMSF (Sigma P7626, 50 mM stock in isopropanol). After 72 h incubation, cells were washed once with PBS and 150 μl PEB-1 with PMSF was added per well. Plates were agitated vigorously for 15 minutes, room temperature, then frozen at −70° C. Plates were thawed, lysates were mixed thoroughly, and 100 μl were applied to an NPTII Elisa plate. A standard curve was made. Lysate from DMSO-treated control cells was pooled, serially diluted with PEB-1 with PMSF, and applied to duplicate wells of the ELISA plate, in a range of initial lysate amount of 150 ul-2.5 ul. In addition, 100 μl buffer alone was applied in duplicate as a blank. Plates were sealed and gently agitated at room temperature for 2 h. Following capture incubation, the plates were washed 5×300 μl with PBS-T (0.5% Tween-20, PBS-T was supplied in the ELISA kit). For detection, a 1× dilution of enzyme conjugate diluent MRS-2 (5×) was made in PBS-T, into which 1:100 dilutions of enzyme conjugates A and B were added, as per instructions. Plates were resealed, and incubated with agitation, covered, room temperature, for 2 h. The washing was then repeated and 100 μl of room temperature TMB substrate was added. After approximately 30 minutes incubation (room temperature, agitation, covered), the reaction was stopped with 50 μl 3M sulfuric acid. Plates were read at 450 nm on a Molecular Devices Versamax plate reader.
Inhibitor effect was expressed as a percentage of DMSO-treated control signal, and inhibition curves were calculated using a 4-parameter equation: y=A+((B−A)/(1+((C/x)^D))), where C is half-maximal activity or EC50.

[3] = recombinant E. coli or Baculovirus full-length NS3 with NS4A-2, read-out: NS3-NS4 IC50
[4] = GS4.3 cells, 72 h incubation, NPTII ELISA, read-out: Replicon EC50

T1 sequence (P27958 1027-1657): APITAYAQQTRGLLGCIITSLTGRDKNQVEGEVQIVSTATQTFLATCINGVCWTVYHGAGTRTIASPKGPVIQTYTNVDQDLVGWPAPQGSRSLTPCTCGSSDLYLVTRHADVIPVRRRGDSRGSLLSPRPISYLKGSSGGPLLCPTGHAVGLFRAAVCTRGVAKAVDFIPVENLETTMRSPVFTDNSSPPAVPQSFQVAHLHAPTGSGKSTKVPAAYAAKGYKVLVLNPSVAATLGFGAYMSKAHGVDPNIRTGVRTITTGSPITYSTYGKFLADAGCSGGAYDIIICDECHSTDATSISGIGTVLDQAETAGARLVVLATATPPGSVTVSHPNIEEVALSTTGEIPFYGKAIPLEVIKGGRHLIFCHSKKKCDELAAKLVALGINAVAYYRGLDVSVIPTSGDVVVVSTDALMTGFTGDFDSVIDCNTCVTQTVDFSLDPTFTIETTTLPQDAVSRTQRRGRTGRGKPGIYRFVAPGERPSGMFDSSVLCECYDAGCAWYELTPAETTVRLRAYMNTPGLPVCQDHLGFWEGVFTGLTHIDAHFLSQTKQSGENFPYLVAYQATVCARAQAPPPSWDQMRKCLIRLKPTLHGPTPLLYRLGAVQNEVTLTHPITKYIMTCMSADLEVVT

SMILES	IC50 [1, 3] [nM]	EC50 [2, 4] [nM]	EC50 ([2]; Table 26, read-out: EC50) [nM]	IC50 [1] [nM]
CC(C)(C)OC(=O)N[C@H]1CCCC(F)(F)C/C=C\[C@@H]2C[C@@]2(C(=O)NS(=O)(=O)C2CC2)NC(=O)[C@@H]2C[C@@H](OC(=O)N3Cc4cccc(F)c4C3)CN2C1=O [Compound 1008, (2R,6S,13aS,14aR,16aS,Z)-6-(tert-butoxycarbonylamino)-14a-(cyclopropylsulfonylcarbamoyl)-9,9-difluoro-5,16-dioxo-1,2,3,5,6,7,8,9,10,11,13a,14,14a,15,16,16a-hexadecahydrocyclopropa(e)prrolo[1,2-a][1,4]diazacyclopentadecine 2-yl 4-fluoroisoindoline-2-carboxylate]	< 100	< 100		
CC(NC(=O)[C@@]12C[C@H]1/C=C\CCCCC[C@H](NC(=O)OC(C)(C)C)C(=O)N1C[C@H](OC(=O)N3Cc4cccc(F)c4C3)C[C@H]1C(=O)N2)c1ccncc1 (stereo partly shown) [Compound 618]	< 100	< 10000		
O=C(N[C@H](C(=O)N[C@H]1CCCCC/C=C\[C@@H]2C[C@@]2(C(=O)NS(=O)(=O)C2CC2)NC(=O)[C@@H]2C[C@@H](OC(=O)N3Cc4cccc(Cl)c4C3)CN2C1=O)C1CCCCC1)c1cnccn1 [Compound 263]	< 100	< 100		
O=C(CCC(F)(F)F)N[C@H]1CCCCC/C=C\[C@@H]2C[C@@]2(C(=O)O)NC(=O)[C@@H]2C[C@@H](OC(=O)N3Cc4cccc(Cl)c4C3)CN2C1=O [Compound 142]	< 100	< 10000		
O=C(Cc1ccc(C(F)(F)F)cc1)N[C@H]1CCCCC/C=C\[C@@H]2C[C@@]2(C(=O)NS(=O)(=O)C2CC2)NC(=O)C2CCCN2C1=O (stereo partly shown) [Compound 2142]	< 10000		> 10000	
N#CNC(=O)[C@@]12C[C@H]1/C=C\CCCCC[C@H](NC(=O)C1CC1)C(=O)N1C[C@H](OC(=O)N3Cc4cccc(F)c4C3)CC1C(=O)N2 (stereo partly shown) [Compound 638]	< 1000	> 10000		
CN(Cc1ccccc1)S(=O)(=O)NC(=O)[C@@]12C[C@H]1/C=C\CCCCC[C@H](NC(=O)OC(C)(C)C)C(=O)N1C[C@H](OC(=O)N3Cc4cccc(F)c4C3)C[C@H]1C(=O)N2 [Compound 210]	< 100	< 100		
CNc1c(NC(=O)[C@@]23C[C@H]2/C=C\CCCCC[C@H](NC(=O)OC(C)(C)C)C(=O)N2C[C@H](OC(=O)N4Cc5cccc(F)c5C4)C[C@H]2C(=O)N3)c(=O)c1=O [Compound 646]	< 1000	> 10000		
CC(C)(C)OC(=O)N[C@H]1CCCCC/C=C\[C@@H]2C[C@@]2(C(=O)O)NC(=O)[C@@H]2C[C@@H](OC(=O)N3Cc4ccc(OCCNC5CC5)cc4C3)CN2C1=O [Compound 131]	< 100	< 10000		
CC(C)(C)OC(=O)N[C@H]1CCCCC/C=C\[C@@H]2C[C@@]2(C(=O)NS(=O)(=O)NC2CCCC2)NC(=O)[C@@H]2C[C@@H](OC(=O)N3Cc4cccc(Cl)c4C3)CN2C1=O [Compound 212]	< 100	< 1000		
CC(C)(C)OC(=O)N[C@H]1CCCCC/C=C\[C@@H]2C[C@@]2(C(=O)NC(=O)c2ccccc2)NC(=O)[C@@H]2C[C@@H](OC(=O)N3Cc4ccccc4C3)CN2C1=O [Compound 705]	< 100	< 100		
CC(C)(C)OC(=O)N[C@H]1COCCCCC[C@@H]2C[C@@]2(C(=O)NS(=O)(=O)C2CC2)NC(=O)[C@@H]2C[C@@H](OC(=O)N3Cc4cccc(F)c4C3)CN2C1=O [Compound 1022, (2R,6S,13aR,14aR,16aS)-6-(tert-butoxycarbonylamino)-14a-(cyclopropylsulfonylcarbamoyl)-5,16-dioxohexadecahydro-1H-cyclopropa(i)pyrrolo[1,2-e][1,5,8]oxadiazacyclopentadecin-2-yl 4-fluoroisoindoline-2-carboxylate]	< 100	< 100		
CC(C)NS(=O)(=O)NC(=O)[C@@]12C[C@H]1/C=C\CCCCC[C@H](NC(=O)OC1CCCC1)C(=O)N1C[C@H](OC(=O)N3Cc4cccc(F)c4C3)C[C@H]1C(=O)N2 [Compound 218]	< 100	< 100		
O=C(Cc1ccc(Cl)cc1)N[C@H]1CCCCC/C=C\[C@@H]2C[C@@]2(C(=O)NS(=O)(=O)C2CC2)NC(=O)C2CCCN2C1=O (stereo partly shown) [Compound 2143]	> 10000		> 10000	
O=C(N[C@H]1CCCCC/C=C\[C@@H]2C[C@@]2(C(=O)NS(=O)(=O)C2CC2)NC(=O)[C@H]2Cc3cc(Oc4cccc(Cl)c4)ccc3CN2C1=O)OC1CCCC1 [Compound 2005, Cyclopentyl (1aS,9S,17aR,19aR,Z)-15-(3-chlorophenoxy)-19a-(cyclopropylsulfonylcarbamoyl)-10,18-dioxo-1a,4,5,6,7,8,9,10,12,17,17a,18,19,19a-tetradecahydro-1H-11,14-diaza-bicyclo[13.1.0]hexadeca-1(15), 2-dieno[11,12-b]isoquinolin-9-ylcarbamate]	< 100	< 1000		
CC(C)(C)OC(=O)N[C@H]1CCCCCC[C@@H]2C[C@@]2(C(=O)NS(=O)(=O)C2CC2)NC(=O)[C@@H]2C[C@@H](OC(=O)N3Cc4cccc(F)c4C3)CN2C1=O [Compound 269]	< 100	< 100		
CC(C)(C)OC(=O)N[C@H]1CCOCC/C=C\[C@@H]2C[C@@]2(C(=O)NS(=O)(=O)C2CC2)NC(=O)[C@@H]2C[C@@H](OC(=O)N3Cc4cccc(F)c4C3)CN2C1=O [Compound 1027, (2R,6S,13aS,14aR,16aS,Z)-6-(tert-butoxycarbonylamino)-14a-(cyclopropylsulfonylcarbamoyl)-5,16-dioxo-2,3,5,6,7,8,10,11,13a,14,14a,15,16,16a-tetradecahydro-1H-cyclopropa(j)pyrrolo[1,2-f][1,6,9]oxadiazacyclopentadecin-2-yl 4-fluoroisoindoline-2-carboxylate]		< 100		< 100
O=C1N[C@]2(C(=O)NS(=O)(=O)C3CC3)C[C@H]2/C=C\CCCCC[C@H](Nc2c(N3CCC3)c(=O)c2=O)C(=O)N2C[C@H](OC(=O)N3Cc4cccc(F)c4C3)C[C@@H]12 [Compound 193]	< 100	< 1000		
CC(C)(C)OC(=O)N[C@H]1CCCCC/C=C\[C@@H]2C[C@@]2(C(=O)NS(=O)(=O)N2CCCC2)NC(=O)[C@@H]2C[C@@H](OC(=O)N3Cc4cccc(Cl)c4C3)CN2C1=O [Compound 214]	< 100	< 100		
CC(C)(C)OC(=O)N[C@H]1CCCCC/C=C\[C@@H]2C[C@@]2(C(=O)NS(=O)(=O)C2CC2)NC(=O)[C@@H]2C[C@@H](OC(=O)N3Cc4cccc(N5CCOCC5)c4C3)CN2C1=O [Compound 158]	< 100	< 100		
CCOC(=O)[C@@]12C[C@H]1/C=C\CCCCC[C@H](N)C(=O)N1C[C@H](OC(=O)N3Cc4ccccc4C3)C[C@H]1C(=O)N2 [Compound 121]	< 1000	< 1000		
O=C1N[C@]2(C(=O)NS(=O)(=O)C3CC3)C[C@H]2/C=C\CCCCC[C@H](NCC2CC2)C(=O)N2C[C@H](OC(=O)N3Cc4cccc(F)c4C3)C[C@@H]12 [Compound 910]	< 100	< 1000		
Cc1ccc(CN[C@H]2CCCCC/C=C\[C@@H]3C[C@@]3(C(=O)NC#N)NC(=O)C3C[C@@H](OC(=O)N4Cc5cccc(F)c5C4)CN3C2=O)o1 (stereo partly shown) [Compound 643]	< 1000	> 10000		
